Experimental data reported in article PMC10415461 (Molecular Diversity, 2022).
≈ marks a conversion by molar mass, not a printed value. Read-outs that look alike come from different tables or passages of the source.

What was measured:
S. aureus DNA gyrase = S. aureus DNA gyrase (Staphylococcus aureus, UniProt P0A0K8+P20831); assay: Staphylococcus aureus DNA gyrase supercoiling assay; type: biochemical; conditions: supercoiling of relaxed pBR322, 37 °C, 30 min; read-out: S. aureus DNA gyrase IC50 ± SD
Method: As antibacterial agents, fluoroquinolones act by targeting and inhibiting DNA gyrase (topo II) which is an essential enzyme involved in the DNA replication process.
Staphylococcus aureus DNA gyrase was incubated at 37 °C for 30 min in a total reaction volume of 30 μl containing 40 mM HEPES. KOH (pH 7.6), 10 mM magnesium acetate, 10 mM DTT, 2 mM ATP, 500 mM potassium glutamate, 0.05 mg/ml albumin and Relaxed pBR322. DNA gyrase supercoiling reactions catalyzed by S. aureus gyrase, Stop reaction by adding 30 μL of STEB and 30 μL of chloroform/isoamyl alcohol (v:v, 24:1),and then Vortex briefly ~ 5 secs and centrifuge for 1 min. after which 20 µL of this was loaded on a 1% agarose gel that was then run at ~ 75 V for approximately 2 h. The gel was stained by (0.5 mg/L) ethidium bromide in water. Fluorescent images were taken at a wavelength of 300 nm on a UV transilluminator imaging system. The fluorescence intensity of the supercoiled plasmid reaction product was quantitated using ImagQuant software (Molecular Dynamics).

[1] = Solubility determination in phosphate buffer; type: physicochemical; conditions: aqueous buffer, thermodynamic from solid
Method: A sample of drug was accurately weighed and dissolved in 100 ml of distilled water to prepare 100 mcg/ml stock solutions. Appropriate dilution of the stock solution with phosphate buffer pH 6.8 and 7.8 was then made to prepare a working solution of 40mcg/ml.
After determination of λ max of drug, a calibration curve was constructed by preparing solutions containing different concentrations of (1–5 mcg/ml) from stock solution after appropriate dilution with phosphate buffer pH 6.8. The UV absorbance of the prepared sample solutions were measured at the predetermined λ max using phosphate buffer pH 6.8 as a blank.
Aqueous solubility of the complexes was measured as a function of pH. An excess of each derivative was placed into suitable stoppered containers. […] The samples were immersed in a water bath thermostatized at 37 ± 1^◦C and 100 rpm and periodically shaken for 48 h. Once the equilibrium was reached, the pH of the supernatant was regarded.

[2] = tested on: C. albicans (ATCC 10,231); assay: Antifungal MIC, agar cup diffusion method; type: cell-based, Candida albicans; conditions: Sabouraud agar, 37 °C; for MIC: Candida albicans, ATCC 10,231, 24 h, read-out: MIC C. albicans (Fungi); for MIC C. albicans (Fungi): 24 h
Method: The antibacterial and antifungal activities of compounds, ketone 1, 2a-j, and 5a-i were evaluated in vitro against S. aureus (ATCC 6538), P. aeruginosa (ATCC 10,145), E. coli (ATCC 8739), and C. albicans (ATCC 10,231). […] The antifungal activity of compounds 1, 2a-j, and 5a-i and ketoconazole were determined according to the agar cup diffusion method at Deraya University, Faculty of Pharmacy, Department of Microbiology.
Fungal strains and culture conditions. […] Standard strain of Candida albicans (ATCC 10,231) was obtained from microbiological resource center, Faculty of Agriculture, Ain Shams University, Cairo, Egypt. The isolate was maintained at -70 °C in Trypticase Soya Broth (TSB, Becton, and Dickinson) with 10% glycerol. Prior to inoculation, the isolate was subcultured at 37 °C for 24 h on Trypticase Soya Agar (TSA, Becton, and Dickinson) and TSB, respectively.
(§1) The plates were rotated slowly to ensure uniform distribution of the microorganisms and then allowed to solidify on a flat surface. After solidification, four equidistant and circular wells of 10 mm diameter were carefully punched using a sterile cork bore. Twofold serial dilutions of the tested compounds using DMSO were performed. An equal volume of 100µL of each dilution was applied separately to each well in three replicates using a micropipette. All plates were incubated at 37 °C for 24 h. The inhibition zones were measured, and their average was calculated.

S. aureus (ATCC 6538) = assay: Antibacterial MIC, standard agar cup diffusion method; type: cell-based, Staphylococcus aureus; conditions: 24 h; for MIC: Staphylococcus aureus, ATCC6538, 37 °C, read-out: MIC S. aureus (Gram-positive)
Method: (§2) The antibacterial and antifungal activities of compounds, ketone 1, 2a-j, and 5a-i were evaluated in vitro against S. aureus (ATCC 6538), P. aeruginosa (ATCC 10,145), E. coli (ATCC 8739), and C. albicans (ATCC 10,231). […] Standard strains of Staphylococcus aureus (ATCC 6538), Pseudomonas aeruginosa (ATCC 10,145), and Escherichia coli (ATCC 8739) were obtained from microbiological resource center, Faculty of Agriculture, Ain Shams University, Cairo, Egypt. All isolates were maintained at -70 °C in Trypticase Soya Broth (TSB, Becton, and Dickinson) with 10% glycerol. Prior to inoculation, all isolates were subcultured at 37 °C for 24 h on Trypticase Soya Agar (TSA, Becton, and Dickinson) and TSB, respectively.
as §1

physchem = conditions: pH 7.8
Method: The n-octanol/water apparent partition coefficient at the isoelectric point (or distribution constant) was measured by using the traditional shake-flask technique. The pH of the aqueous buffer was first adjusted to isoelectric point of the compound. The n-octanol and aqueous phases were then mutually saturated before the measurement. […] The samples were agitated for 5h at water bath shaker thermostatized at 25 ± 1^◦C and 100 rpm. The concentration of the solute was determined in the aqueous and organic phases at the isoelectric point by UV spectroscopy the log p value was calculated as follows: […].

E. coli (ATCC 8739) = assay: Antibacterial MIC, standard agar cup diffusion method; type: cell-based; conditions: Escherichia coli, ATCC8739, 37 °C, 24 h, read-out: MIC E. coli (Gram-negative)
Method: as §2, §1

[3] = tested on: P. aeruginosa (ATCC 10,145); assay: as above; type: cell-based; conditions: Pseudomonas aeruginosa, ATCC 10145, 37 °C, 24 h, read-out: MIC P. aeruginosa (Gram-negative)
Method: as §2, §1

[4] = phosphate buffer pH 6.8, 37 °C, read-out: Solubility pH 6.8
[5] = phosphate buffer pH 7.8, 37 °C, read-out: Solubility pH 7.8

Row | MIC [2] [µg/mL] | MIC S. aureus (Gram-positive) (S. aureus (ATCC 6538); 37 °C) [µg/mL] | Lipophilicity (log p) (physchem) | Compound | IC50 (S. aureus DNA gyrase) [µM] | solubility at 48 h [1, 4] [µg/mL] | solubility at 48 h [1, 5] [µg/mL] | MIC C. albicans (Fungi) [2] [µg/mL] | MIC (S. aureus (ATCC 6538)) [µg/mL] | logD (physchem) | MIC (E. coli (ATCC 8739)) [µg/mL] | MIC [3] [µg/mL] | melting point [°C]
1 | 36.1 (≈ 53.2 µM) | – | – | N#Cc1c(-c2ccc(Br)cc2)nc(SCC(=O)N2CCN(c3cc4c(cc3F)c(=O)c(C(=O)O)cn4C3CC3)CC2)[nH]c1=O [Compound 5d, 7-(4-(2-((4-(4-Bromophenyl)-5-cyano-6-oxo-1,6-dihydropyrimidin-2-yl)thio)acetyl)piperazin-1-yl)-1-cyclopropyl-6-fluoro-4-oxo-1,4-dihydroquinoline-3-carboxylic acid] | – | – | – | – | 8.14 (≈ 12 µM) | – | 42.2 (≈ 62.1 µM) | 12.3 (≈ 18.1 µM) | 284 to 285
2 | > 100 | – | – | COc1ccc(/C=C/C(=O)c2ccc(NC(=O)N3CCN(c4cc5c(cc4F)c(=O)c(C(=O)O)cn5C4CC4)CC3)cc2)cc1 [Compound 2g] | – | – | – | – | 8 (≈ 13.1 µM) | – | 17 (≈ 27.8 µM) | 6.25 (≈ 10.2 µM) | –
3 | > 100 | 0.70 (≈ 1.42 µM) | – | CC(=O)c1ccc(NC(=O)N2CCN(c3cc4c(cc3F)c(=O)c(C(=O)O)cn4C3CC3)CC2)cc1 [Compound 1] | – | – | – | – | 0.7 (≈ 1.42 µM) | – | 0.6 (≈ 1.22 µM) | 1.2 (≈ 2.44 µM) | –
4 | > 100 | – | − 0.06 | COc1ccc(/C=C/C(=O)c2ccc(NC(=O)N3CCN(c4cc5c(cc4F)c(=O)c(C(=O)O)cn5C4CC4)CC3)cc2)cc1OC [Compound 2i] | – | 150 (≈ 234 µM) | 190 (≈ 297 µM) | – | 6.3 (≈ 9.83 µM) | – | 4.13 (≈ 6.45 µM) | 17 (≈ 26.5 µM) | –
5 | 84.2 (≈ 135 µM) | – | − 0.21 | CN(C)c1ccc(/C=C/C(=O)c2ccc(NC(=O)N3CCN(c4cc5c(cc4F)c(=O)c(C(=O)O)cn5C4CC4)CC3)cc2)cc1 [Compound 2h] | – | 680 (≈ 1090 µM) | 780 (≈ 1250 µM) | – | 1.2 (≈ 1.92 µM) | – | 5.25 (≈ 8.42 µM) | 3.12 (≈ 5.01 µM) | –
6 | > 100 | – | – | O=C(/C=C/c1ccc(Br)cc1)c1ccc(NC(=O)N2CCN(c3cc4c(cc3F)c(=O)c(C(=O)O)cn4C3CC3)CC2)cc1 [Compound 2d] | – | 140 (≈ 212 µM) | 160 (≈ 243 µM) | – | 2.65 (≈ 4.02 µM) | 0.42 | 4.78 (≈ 7.25 µM) | 7.25 (≈ 11 µM) | –
7 | 2.6 (≈ 4.89 µM) | – | – | CC(=O)N1CCN(c2ccc(OCC3COC(Cn4ccnc4)(c4ccc(Cl)cc4Cl)O3)cc2)CC1 (stereo not shown) [Ketoconazole, reference compound] | – | – | – | – | – | – | – | – | –
8 | > 100 | – | – | COc1cc(/C=C/C(=O)c2ccc(NC(=O)N3CCN(c4cc5c(cc4F)c(=O)c(C(=O)O)cn5C4CC4)CC3)cc2)cc(OC)c1OC [Compound 2j] | – | 180 (≈ 268 µM) | 150 (≈ 224 µM) | – | 1.48 (≈ 2.21 µM) | 0.34 | 5.13 (≈ 7.65 µM) | 4.2 (≈ 6.26 µM) | –

Row | Compound | MIC [2] [µg/mL] | MIC S. aureus (Gram-positive) (S. aureus (ATCC 6538); 37 °C) [µg/mL] | Lipophilicity (log p) (physchem) | IC50 (S. aureus DNA gyrase) [µM] | solubility at 48 h [1, 4] [µg/mL] | solubility at 48 h [1, 5] [µg/mL] | MIC C. albicans (Fungi) [2] [µg/mL] | MIC (S. aureus (ATCC 6538)) [µg/mL] | logD (physchem) | MIC (E. coli (ATCC 8739)) [µg/mL] | MIC [3] [µg/mL] | melting point [°C]
9 | O=C(/C=C/c1ccc(F)cc1)c1ccc(NC(=O)N2CCN(c3cc4c(cc3F)c(=O)c(C(=O)O)cn4C3CC3)CC2)cc1 [Compound 2e] | 2.03 to 3.89 (≈ 3.39 to 6.5 µM) | – | – | 3.81 ± 0.2 | 160 (≈ 267 µM) | 180 (≈ 301 µM) | 2.03 (≈ 3.39 µM) | 0.89 (≈ 1.49 µM) | 0.07 | 0.53 (≈ 0.885 µM) | 0.96 (≈ 1.6 µM) | –
10 | N#Cc1c(-c2ccc(F)cc2)nc(SCC(=O)N2CCN(c3cc4c(cc3F)c(=O)c(C(=O)O)cn4C3CC3)CC2)[nH]c1=O [Compound 5e, 7-(4-(2-((4-(4-Fluorophenyl)-5-cyano-6-oxo-1,6-dihydropyrimidin-2-yl)thio)acetyl)piperazin-1-yl)-1-cyclopropyl-6-fluoro-4-oxo-1,4-dihydroquinoline-3-carboxylic acid] | 2.03 to 3.89 (≈ 3.28 to 6.29 µM) | – | – | 1.01 ± 0.05 | – | – | 2.51 (≈ 4.06 µM) | 0.78 (≈ 1.26 µM) | – | 0.52 (≈ 0.841 µM) | 3.25 (≈ 5.25 µM) | 242 to 245
11 | N#Cc1c(-c2ccc(Cl)cc2)nc(SCC(=O)N2CCN(c3cc4c(cc3F)c(=O)c(C(=O)O)cn4C3CC3)CC2)[nH]c1=O [Compound 5c, 7-(4-(2-((4-(4-Chlorophenyl)-5-cyano-6-oxo-1,6-dihydropyrimidin-2-yl)thio)acetyl)piperazin-1-yl)-1-cyclopropyl-6-fluoro-4-oxo-1,4-dihydroquinoline-3-carboxylic acid] | 2.03 to 3.89 (≈ 3.2 to 6.13 µM) | – | – | 1.57 ± 0.08 | – | – | 2.87 (≈ 4.52 µM) | 0.58 (≈ 0.913 µM) | – | 1.03 (≈ 1.62 µM) | 2.04 (≈ 3.21 µM) | 253 to 256
12 | Cc1ccc(/C=C/C(=O)c2ccc(NC(=O)N3CCN(c4cc5c(cc4F)c(=O)c(C(=O)O)cn5C4CC4)CC3)cc2)cc1 [Compound 2f] | > 100 | – | – | 1.77 ± 0.09 | 160 (≈ 269 µM) | 170 (≈ 286 µM) | – | 0.94 (≈ 1.58 µM) | 0.4 | 9.33 (≈ 15.7 µM) | 3.7 (≈ 6.22 µM) | –
13 | O=C(/C=C/c1ccccc1)c1ccc(NC(=O)N2CCN(c3cc4c(cc3F)c(=O)c(C(=O)O)cn4C3CC3)CC2)cc1 [Compound 2a] | > 100 | – | – | 3.47 ± 0.18 | 210 (≈ 362 µM) | 150 (≈ 258 µM) | – | 0.74 (≈ 1.27 µM) | 0.24 | 0.64 (≈ 1.1 µM) | 1.12 (≈ 1.93 µM) | –
14 | COc1ccc(-c2nc(SCC(=O)N3CCN(c4cc5c(cc4F)c(=O)c(C(=O)O)cn5C4CC4)CC3)[nH]c(=O)c2C#N)cc1 [Compound 5g, 7-(4-(2-((5-Cyano-4-(4-methoxyphenyl)-6-oxo-1,6-dihydropyrimidin-2-yl)thio)acetyl)piperazin-1-yl)-1-cyclopropyl-6-fluoro-4-oxo-1,4-dihydroquinoline-3-carboxylic acid] | > 100 | – | − 0.09 | 7.59 ± 0.4 | 740 (≈ 1170 µM) | 900 (≈ 1430 µM) | – | 0.28 (≈ 0.444 µM) | – | 14.2 (≈ 22.6 µM) | 23.1 (≈ 36.7 µM) | 239 to 242
15 | Cc1ccc(-c2nc(SCC(=O)N3CCN(c4cc5c(cc4F)c(=O)c(C(=O)O)cn5C4CC4)CC3)[nH]c(=O)c2C#N)cc1 [Compound 5f] | > 100 | – | – | 3.5 ± 0.19 | – | – | – | 4.79 (≈ 7.79 µM) | – | 3.89 (≈ 6.33 µM) | 2.95 (≈ 4.8 µM) | 264 to 267
